In ChEMBL document CHEMBL1129469, “Nonpeptide angiotensin II receptor antagonists: the next generation in antihypertensive therapy” (J Med Chem, 1996):
Numbering of substitutions follows the chain as printed. One block for each compound: values may come before it.

Tests used:
[1] = biological target: T1, Type-2 angiotensin II receptor (Rattus norvegicus, UniProt P35351); assay: Inhibitory activity at Angiotensin II type 2 receptor.
T1 sequence (P35351 whole entry): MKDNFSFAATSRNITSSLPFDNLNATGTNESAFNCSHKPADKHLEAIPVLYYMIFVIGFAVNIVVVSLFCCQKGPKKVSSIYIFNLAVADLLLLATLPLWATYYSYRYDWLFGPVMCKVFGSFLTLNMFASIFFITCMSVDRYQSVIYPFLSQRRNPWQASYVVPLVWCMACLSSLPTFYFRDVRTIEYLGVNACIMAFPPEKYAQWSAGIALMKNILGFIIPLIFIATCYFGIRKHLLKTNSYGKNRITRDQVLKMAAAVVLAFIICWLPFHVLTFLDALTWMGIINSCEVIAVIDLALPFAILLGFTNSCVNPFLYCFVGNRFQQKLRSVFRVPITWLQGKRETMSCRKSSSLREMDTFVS

[2] = biological target: T2, Angiotensin II receptor (AT-1) type-1 (Rattus norvegicus, UniProt P29089+P25095); assay: Inhibitory activity against Angiotensin II receptor, type 1; assay type: protein assay; settings: read-out: IC50
T2 sequence (P29089 whole entry): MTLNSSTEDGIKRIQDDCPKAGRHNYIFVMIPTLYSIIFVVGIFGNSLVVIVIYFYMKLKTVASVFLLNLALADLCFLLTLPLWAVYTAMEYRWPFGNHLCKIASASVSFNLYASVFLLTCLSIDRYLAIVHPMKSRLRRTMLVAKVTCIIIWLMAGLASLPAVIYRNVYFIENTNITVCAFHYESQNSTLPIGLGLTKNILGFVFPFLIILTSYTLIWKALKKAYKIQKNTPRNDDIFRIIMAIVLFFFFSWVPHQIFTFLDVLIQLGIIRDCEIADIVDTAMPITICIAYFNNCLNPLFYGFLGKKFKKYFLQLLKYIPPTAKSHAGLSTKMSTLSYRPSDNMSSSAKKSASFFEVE
T2 sequence (P25095 whole entry): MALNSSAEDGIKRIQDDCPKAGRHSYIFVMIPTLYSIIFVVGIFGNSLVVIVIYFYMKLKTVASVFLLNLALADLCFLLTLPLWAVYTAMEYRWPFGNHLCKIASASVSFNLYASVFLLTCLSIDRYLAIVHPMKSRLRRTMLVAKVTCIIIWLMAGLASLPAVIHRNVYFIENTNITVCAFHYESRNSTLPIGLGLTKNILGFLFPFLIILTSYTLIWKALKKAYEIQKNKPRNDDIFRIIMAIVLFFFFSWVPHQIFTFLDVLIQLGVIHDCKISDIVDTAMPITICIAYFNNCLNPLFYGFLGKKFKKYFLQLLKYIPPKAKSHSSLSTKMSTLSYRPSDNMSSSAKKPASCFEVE

Rattus norvegicus [3] = organism: Rattus norvegicus; assay: Oral effective dose required for lowering blood pressure in renal hypertensive rats (RHR); assay type: functional
Oryctolagus cuniculus [4] = organism: Oryctolagus cuniculus; assay: Inhibitory activity against angiotensin II type 1 induced contractions in rabbit aorta; assay type: functional
Rattus norvegicus [5] = assay: Intravenous effective dose required for lowering blood pressure in renal hypertensive rats (RHR); assay type: functional
[6] = Oral bioavailability in dog; assay type: ADME, organism-based, Canis lupus familiaris; settings: in vivo
[7] = Oral bioavailability in rat; assay type: ADME, organism-based; settings: in vivo
[8] = biological target: T2, Angiotensin II receptor (AT-1) type-1; assay: Inhibitory activity against Angiotensin II receptor type 1 in rat adrenal membrane; assay type: cell membranes
[9] = biological target: T3, Type-2 angiotensin II receptor (Homo sapiens, UniProt P50052); assay: Ki value was evaluated against Angiotensin II receptor, type 2
T3 sequence (P50052 whole entry): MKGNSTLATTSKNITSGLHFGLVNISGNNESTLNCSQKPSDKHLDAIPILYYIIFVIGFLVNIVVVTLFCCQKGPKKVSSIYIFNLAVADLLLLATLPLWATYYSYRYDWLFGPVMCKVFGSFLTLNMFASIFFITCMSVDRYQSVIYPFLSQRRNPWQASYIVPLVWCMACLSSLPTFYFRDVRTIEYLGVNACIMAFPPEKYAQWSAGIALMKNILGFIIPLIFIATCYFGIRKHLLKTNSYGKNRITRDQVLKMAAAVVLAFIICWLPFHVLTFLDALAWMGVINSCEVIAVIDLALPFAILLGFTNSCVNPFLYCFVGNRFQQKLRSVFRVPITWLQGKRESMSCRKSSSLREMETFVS

[10] = biological target: T4, Type-1 angiotensin II receptor (Homo sapiens, UniProt P30556); assay: Ki value was evaluated against Angiotensin II receptor, type 1
T4 sequence (P30556 whole entry): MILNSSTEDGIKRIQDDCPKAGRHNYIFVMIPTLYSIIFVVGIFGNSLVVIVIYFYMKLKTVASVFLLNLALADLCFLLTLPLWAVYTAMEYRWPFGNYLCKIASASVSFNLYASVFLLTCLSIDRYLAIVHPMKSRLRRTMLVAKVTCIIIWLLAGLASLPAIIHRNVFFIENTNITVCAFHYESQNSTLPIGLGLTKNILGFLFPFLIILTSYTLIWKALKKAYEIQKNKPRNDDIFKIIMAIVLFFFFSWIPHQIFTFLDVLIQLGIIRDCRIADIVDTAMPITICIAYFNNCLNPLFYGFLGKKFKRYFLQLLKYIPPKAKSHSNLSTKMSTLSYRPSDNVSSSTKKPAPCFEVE

[11] = biological target: T2, Angiotensin II receptor (AT-1) type-1; assay: Inhibitory activity against Angiotensin II receptor, type 1 in rat aortic membranes; assay type: cell membranes
[12] = biological target: T5, Type-1 angiotensin II receptor (Oryctolagus cuniculus, UniProt P34976); assay: Inhibition of Angiotensin II receptor, type 1
T5 sequence (P34976 whole entry): T4 sequence (P30556 whole entry) with I2M, V49A, I254V, I270V, R272H, R311K, T349S, A353V

Rattus norvegicus [13] = assay: Percent inhibition was evaluated to inhibit Ang II pressor response in conscious rats at oral dose 1 mg/kg; assay type: functional
[14] = biological target: T6, Type-1 angiotensin II receptor (Cavia porcellus, UniProt Q9WV26); assay: In vitro antagonistic potency against Angiotensin II receptor, type 1 in guinea pig adrenal membrane; assay type: functional, cell membranes
T6 sequence (Q9WV26 whole entry): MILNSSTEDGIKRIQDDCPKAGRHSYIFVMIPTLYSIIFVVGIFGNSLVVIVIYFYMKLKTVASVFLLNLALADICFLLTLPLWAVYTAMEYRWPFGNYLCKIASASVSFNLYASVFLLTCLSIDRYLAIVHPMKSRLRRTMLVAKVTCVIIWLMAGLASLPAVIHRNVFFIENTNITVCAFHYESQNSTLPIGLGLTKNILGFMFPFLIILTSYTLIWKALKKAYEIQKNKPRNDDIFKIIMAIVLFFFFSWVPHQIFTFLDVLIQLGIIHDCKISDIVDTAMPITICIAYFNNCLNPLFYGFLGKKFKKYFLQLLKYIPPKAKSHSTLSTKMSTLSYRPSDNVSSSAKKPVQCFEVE

Canis familiaris = assay: Oral effective dose required for inhibition of Ang II pressor response in conscious dog; assay type: functional; settings: Canis lupus familiaris
Rhesus monkey = assay: Oral effective dose required for inhibition of Ang II pressor response in conscious rhesus monkey; assay type: functional, Cercopithecidae; settings: Macaca mulatta
Rattus norvegicus [15] = assay: Oral effective dose required for inhibition of Ang II pressor response in conscious rat; assay type: functional
Oryctolagus cuniculus [16] = organism: Oryctolagus cuniculus; assay: Compound was tested for its antagonistic activity against angiotensin II-induced contractions in rabbit aorta; assay type: functional
[17] = biological target: T2, Angiotensin II receptor (AT-1) type-1; assay: In vitro antagonistic potency against Angiotensin II receptor, type 1 in rat liver; assay type: functional, tissue-based
[18] = biological target: T2, Angiotensin II receptor (AT-1) type-1; assay: In vitro antagonistic potency against Angiotensin II receptor, type 1 in rat liver using [125I]-Sar1-Ile8-Ang II as radioligand; assay type: functional, tissue-based
[19] = biological target: T2, Angiotensin II receptor (AT-1) type-1; assay: In vitro antagonistic potency against Angiotensin II receptor, type 1 in rat adrenal cortex; assay type: functional, tissue-based
Rattus norvegicus [20] = assay: Intravenous effective dose against Ang II-induced pressor responses in conscious rats; assay type: functional
[21] = Oral Bioavailability was evaluated in cynomolgus monkeys by oral administration; assay type: ADME, organism-based, Macaca fascicularis; settings: cynomolgus monkey, in vivo
[22] = Oral Bioavailability was evaluated in dog by oral administration; assay type: ADME, organism-based, Canis lupus familiaris; settings: in vivo
Oryctolagus cuniculus [23] = organism: Oryctolagus cuniculus; assay: PD' 2 value was evaluated for antagonistic activity in rabbit aorta; assay type: functional
HASMC = assay: Inhibitory activity against Ang II-induced proliferation of human aortic smooth muscle cells in a dose dependent manner; assay type: functional, cell-based

Structure (SMILES): CCCC(=O)N(CCC(=O)c1c(CC)nc(CCC)n1Cc1ccc(-c2ccccc2S(=O)(=O)NC(=O)OCCC(C)C)cc1F)c1cccnc1
IC50 [1]: 0.28 nM
IC50 [2]: 0.26 nM
ED30 (Rattus norvegicus [3]): 0.27 mg/kg

Structure (SMILES): CCc1nc2c(C)cc(C)nc2n1Cc1ccc2c(ccn2C(=O)c2cccc(-c3nn[nH]n3)c2)c1
IC50 [1]: 130 nM
IC50 [12]: 5 nM

Structure (SMILES): CCCc1nc2c(C)c(NC(=O)c3ccccc3)cnc2n1Cc1ccc(-c2ccccc2S(=O)(=O)NC(=O)OCCC(C)C)cc1
bioavailability [6]: 34%
IC50 [1]: 0.29 nM
bioavailability [7]: 45%
IC50 [2]: 0.24 nM

Structure (SMILES): CCCCc1nc2ccc(NC(=O)N(C)C(C)C)cc2c(=O)n1Cc1ccc(-c2ccccc2-c2nn[nH]n2)cc1
inhibition in vivo at 1 mg/kg (Rattus norvegicus [13]): 84%

Structure (SMILES): CCc1nc2c(C)cc(C)nc2n1Cc1ccc(-c2ccccc2S(=O)(=O)NC(=O)c2ccccc2)cc1
ED50 (Canis familiaris): 0.035 mg/kg
ED50 (Rhesus monkey): 0.1 mg/kg
ED50 (Rattus norvegicus [15]): 0.067 mg/kg

Structure (SMILES): CCc1nc(C2CC2)c(C(N)=O)n1Cc1ccc2oc(-c3ccccc3NS(=O)(=O)C(F)(F)F)c(Br)c2c1
pKB (Oryctolagus cuniculus [16]): 9
Log Ki [18]: -9.3

Structure (SMILES): CCCCCCC(C(=O)O)n1cnc(NC(=O)c2cccc(O)c2C(=O)O)c1 (configuration not stated)
Ki [19]: 4400 nM
Kb (Oryctolagus cuniculus [16]): 78 nM

Structure (SMILES): CCCCCN(C(=O)NC)c1ccc2nc(CCCC)n(Cc3ccc(NC(=O)c4c(Cl)ccc(Cl)c4C(=O)O)cc3)c2c1
Ki [9]: 730 nM
ED30 (Rattus norvegicus [5]): 2 mg/kg
Ki [10]: 20 nM

Structure (SMILES): CCc1nc2c(n1Cc1ccc(-c3ccccc3-c3nn[nH]n3)cc1)/C(=C/C(=O)O)CCCC2
PD' 2 (Oryctolagus cuniculus [23]): 9.91

Structure (SMILES): CCc1nc2ccc(NC(=O)N(C)C(C)C)cc2c(=O)n1Cc1ccc(-c2ccccc2S(=O)(=O)NC(=O)OCCC2CC2)cc1F
bioavailability [6]: 17%
bioavailability [7]: 23%

Structure (SMILES): CCCCc1nc(Cl)c(CO)n1Cc1ccc(-c2ccccc2-c2nnn[nH]2)cc1 [LOSARTAN]
IC50 (HASMC): 0.71 nM
Kb (Oryctolagus cuniculus [16]): 22 nM
pKB (Oryctolagus cuniculus [16]): 8.2
ED30 (Rattus norvegicus [5]): 0.78 mg/kg
ED30 (Rattus norvegicus [3]): 0.59 mg/kg

Second part, led by results:

IC50 (Oryctolagus cuniculus [4]): 0.3 nM
Structure (SMILES): CCOc1nc2cccc(C(=O)O)c2n1Cc1ccc(-c2ccccc2-c2nnn[nH]2)cc1

bioavailability [6]: 13%
bioavailability [7]: 8%
IC50 [8]: 6 nM
Structure (SMILES): CCCc1nc(CC)c(C(=O)O)n1Cc1ccc(-c2ccccc2-c2nn[nH]n2)cc1
ED30 (Rattus norvegicus [5]): 0.005 mg/kg
ED30 (Rattus norvegicus [3]): 0.03 mg/kg

Ki [9]: 480 nM
Ki [10]: 29 nM
Structure (SMILES): CCCCc1nc2ccc(NC(=O)NC3CCCCC3)cc2n1Cc1ccc(-c2ccccc2C(=O)O)cc1
ED30 (Rattus norvegicus [5]): ~2 mg/kg

IC50 [11]: 0.6 nM
Structure (SMILES): CCCCc1nc2cccnc2n1Cc1ccc(-c2ccccc2-c2nnn[nH]2)cc1

IC50 [1]: 2 nM
IC50 [12]: 0.3 nM
Structure (SMILES): CCCc1ccc(-c2nnn[nH]2)c(-c2ccc(Cn3c(CC)nc4c(C)cc(C)nc43)cc2)c1

IC50 [14]: 30 nM
Structure (SMILES): CCc1cc(OCc2ccc(-c3ccccc3-c3nnn[nH]3)cc2)c2ccccc2n1

IC50 [8]: 2.1 nM
Structure (SMILES): CCCc1nc(CC)c(C=O)n1Cc1ccc(-c2ccccc2-c2nn[nH]n2)cc1
ED30 (Rattus norvegicus [3]): 0.027 mg/kg

F [7]: 11%
Ki [17]: 2.9 nM
Structure (SMILES): O=C(O)c1c(Oc2ccc(-c3ccccc3-c3nn[nH]n3)cc2)c(C2CC2)nc2ccccc12
Kb (Oryctolagus cuniculus [16]): 0.061 nM

Ki [19]: 800 nM
Structure (SMILES): CCCCc1nc(Cl)c(C(=O)O)n1Cc1cccc2c1ccn2-c1ccccc1-c1nn[nH]n1
Kb (Oryctolagus cuniculus [16]): 0.068 nM
ED50 (Rattus norvegicus [20]): 0.22 µmol/kg

bioavailability [21]: > 50%
bioavailability [22]: > 50%
bioavailability [7]: > 50%
Ki [17]: 0.76 nM
Structure (SMILES): CCCN(Cc1ccc(-c2ccccc2-c2nn[nH]n2)cc1)c1ncccc1C(=O)O

IC50 [8]: 3.1 nM
Structure (SMILES): CCCc1nc(C(F)(F)C(F)(F)F)c(C(=O)O)n1Cc1ccc(-c2ccccc2-c2nn[nH]n2)cc1
ED30 (Rattus norvegicus [5]): 0.02 mg/kg
ED30 (Rattus norvegicus [3]): 0.21 mg/kg

IC50 [12]: 1.9 nM
Structure (SMILES): CCCc1nc(CC)c(C=O)n1Cc1ccc(-c2ccccc2S(=O)(=O)NC(=O)c2ccccc2)cc1

IC50 [11]: 52 nM
Structure (SMILES): Cc1ccnc2c1nc(C1CC1)n2Cc1ccc(-c2ccccc2C(=O)O)cc1

IC50 [11]: 0.8 nM
Structure (SMILES): CCCc1nc2c(n1Cc1ccc(-c3ccccc3-c3nnn[nH]3)cc1)C(=O)CCCC2 [PRATOSARTAN]

bioavailability [7]: 3%
Log Ki [18]: -9
Structure (SMILES): CCCCc1nc(Cl)c(C(=O)O)n1Cc1ccc2oc(-c3ccccc3-c3nnn[nH]3)c(Br)c2c1 [ZOLASARTAN]
pKB (Oryctolagus cuniculus [16]): 9.8
